Source: ChEMBL document CHEMBL1152974, “Ionic interactions for substituted MCH1R inhibitors studied by pK(a) values” (Bioorg Med Chem Lett, 2009)

How the values were obtained:
[1] = Association constant, pKa for quinoline nitrogen; format: physicochemical
[2] = Association constant, pKa for aliphatic nitrogen; format: physicochemical

With `CC(=O)Nc1ccc2nc(N(C)CCO)ccc2c1` the pKa [1] was 8.91.

With `CC(=O)Nc1ccc2nc(C(C)(C)CCN(C)C)ccc2c1` the pKa [1] was 6.22 and the pKa [2] was 12.4.

`CC(=O)Nc1ccc2nc(C(C)CCN(C)C)ccc2c1` (configuration not stated) gave a pKa [1] of 6.56 and a pKa [2] of 11.8.

`CC(=O)Nc1ccc2nc(SCCN(C)C)ccc2c1` gave a pKa [1] of 4.33 and a pKa [2] of 11.6.

In the case of `CC(=O)Nc1ccc2nc(F)ccc2c1`, the pKa [1] is reported as -1.39.

Work on `CC(=O)Nc1ccc2nc(N(C)CCN(C)C)ccc2c1` yielded a pKa [1] of 9.05 and a pKa [2] of 10.2.

`CC(=O)Nc1ccc2nc(NCCN(C)C)ccc2c1` gave a pKa [1] of 12.2 and a pKa [2] of 10.8.

In the case of `CC(=O)Nc1ccc2nc(CCCN(C)C)ccc2c1`, the pKa [1] is reported as 8.98 and the pKa [2] is reported as 12.7.

`CC(=O)Nc1ccc2nc(OCCN(C)C)ccc2c1` showed a pKa [1] of 4.64 and a pKa [2] of 9.94.

`CC(=O)Nc1ccc2ncccc2c1` showed a pKa [1] of 5.51.
